# Read-outs that look alike come from different tables or passages of the source.
# How the values were obtained:
# Min6 cells [1] = experiment: Glucose-stimulated insulin secretion in Min6 cells (insulin ELISA); type: cell-based, mouse; conditions: for insulin secretion in β-cells, in words: Min6 β-cells
# Procedure: (§1) (A) Effect of drug candidates on insulin secretion in β-cells. Min6 cells were incubated in serum-free oxygen-saturated Krebs-Ringer bicarbonate (KRB) buffer containing high glucose (16.7 mM), CCF642 and drug candidates for 30 min. The supernatants were collected for insulin ELISA assay. (B) Min6 cells were incubated with PBS, CCF642 and drug candidates, respectively, for 24 h. Following PBS washing, WST-1 was added into each well for additional 20 min incubation.
# Min6 cells were grown in complete Dulbecco's modified Eagle medium (DMEM) medium containing 10% fetal bovine serum, 100 units/ml penicillin and 100 µg/ml streptomycin in a 5% CO2 incubator in the presence of 3.3 mM glucose unless indicated otherwise. Min6 cells were pre-incubated in serum-free oxygen-saturated Krebs-Ringer bicarbonate (KRB) buffer containing 3.3 mM glucose at 37° C. for 30 min. The cells (7.5×10^4) were then incubated with KRB buffer containing high glucose (16.7 mM) or low glucose (3.3 mM) for an additional 30 min. The supernatants were collected for insulin ELISA assay.
# [2] = Cell viability test (WST-1) in Min6 cells; type: cell-based, mouse; conditions: mouse
# Procedure: as §1
# (§2) Min6 cells were cultured at 37° C. in complete medium. Cell cytotoxicity was determined using WST-1 (4-[3-(4-Iodophenyl)-2-(4-nitrophenyl)-2H-5-tetrazolio]-1,3-benzene Disulfonate) according to the manutkturet's guidelines. Briefly, the cells were grown in a […] containing complete medium in the presence of the indicated compounds for 24 h. Following PBS washing, WST-1 was added into each well for additional 20 min incubation. After removing the medium, the cells in the plate were measured with a SpectraMax i3x reader at 450 nm.
# PDIA4 = target: T1, PDIA4 (Homo sapiens, UniProt P13667); experiment: biochemical;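 further: enzymatic activity of PDIA4 read as absorbance at 595 nm, inhibition given as percent decrease relative to vehicle-treated control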
# T1 sequence (P13667 21-645): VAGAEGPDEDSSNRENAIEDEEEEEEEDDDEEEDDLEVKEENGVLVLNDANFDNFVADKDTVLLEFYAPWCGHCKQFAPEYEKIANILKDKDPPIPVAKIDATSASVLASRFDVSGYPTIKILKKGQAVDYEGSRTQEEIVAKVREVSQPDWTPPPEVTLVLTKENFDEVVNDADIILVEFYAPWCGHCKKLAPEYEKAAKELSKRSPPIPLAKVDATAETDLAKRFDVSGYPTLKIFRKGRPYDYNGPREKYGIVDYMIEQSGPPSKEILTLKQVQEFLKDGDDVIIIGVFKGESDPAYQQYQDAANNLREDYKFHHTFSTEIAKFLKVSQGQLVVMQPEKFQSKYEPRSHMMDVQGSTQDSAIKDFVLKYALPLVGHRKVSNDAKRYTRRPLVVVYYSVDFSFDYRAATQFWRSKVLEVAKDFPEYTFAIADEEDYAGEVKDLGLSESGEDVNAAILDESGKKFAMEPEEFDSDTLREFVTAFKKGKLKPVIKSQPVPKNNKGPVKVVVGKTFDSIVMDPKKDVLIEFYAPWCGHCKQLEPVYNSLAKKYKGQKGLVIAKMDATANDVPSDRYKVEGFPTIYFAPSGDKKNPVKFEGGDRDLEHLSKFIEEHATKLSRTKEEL
# Procedure: Recombinant PDI proteins PDIA4 (23 pM) was incubated with insulin (0.2 mM) and DTT (0.1 mM) in the presence of vehicle and compounds at the indicated doses for 30 min at 25° C. The mixture was, measured using a SpectraMax i3x reader at 595 nm based on the manufacturer's instructions (Molecular device, CA, USA). Inhibition of the enzymatic activity PDIA4 is calculated by the formula, 100%×(OD595 of vehicle−OD595 of CP)/(OD595 of vehicle) as published previously.
# db/db mice = experiment: Anti-diabetes effect in db/db mice (blood glucose); type: in vivo, mouse; conditions: CPD 8 2.5 mg/kg, metformin 60 mg/kg; for fasting blood glucose (FBG) / postprandial blood glucose (PBG): sitagliptin 30 mg/kg
# Procedure: (A-B) New-onset diabetes, Lepr^db/db mice, are grouped and treated with PBS vehicle (CTR), sitagliptin (STG, 30 Mg/kg), CPD8 (2.5 mg/kg), and a combination of CPD8 (2.5 mg/kg) and metformin […]) (CPD8+Met) for the indicated time. Fasting blood glucose (FBG (A)) and postprandial blood glucose (PBG (B)) of the mice were monitored. The value (n) is number of mice indicated in parentheses.
# Moreover, we examined the in vivo anti-diabetes effect of CPD 8, one of drug candidates for Pdia4 inhibition, in db/db mice, a mouse model of type 2 diabetes. […] PBG in db/db mice (FIG. 4B).
# Min6 cells [3] = experiment: Cell viability test (WST-1) in Min6 cells; type: cell-based, mouse
# Procedure: as §1, §2
# [4] = Min6, a mouse β-cells, read-out: EC50 values, insulin-releasing action
# [5] = Mus musculus, 0.5 h, Table 5, insulin secretion, Min6 cells, high glucose (16.7 mM), 30 min, read-out: EC50
# [6] = Table 5, 24 h, WST-1, read-out: CC50
EC50 (Min6 cells [1]; [4]) [nM],EC50 (Min6 cells [1]; [5]) [nM],IC50 (PDIA4) [nM],SMILES,"insulin secretion in β-cells, in words (Min6 cells [1])","CC50 at 24 h [2, 6] [nM]",CC50 at 24 h ([2]; read-out: CC50 values) [nM],"SI (CC50/EC50) (Min6 cells [1]; Table 5, Min6 cells)",fasting blood glucose (FBG) (db/db mice),postprandial blood glucose (PBG) (db/db mice),reversal of type 2 diabetes (db/db mice),CC50 (Min6 cells [3]; [6]) [nM],CC50 (Min6 cells [3]; read-out: CC50 values) [nM]
30,20,–,"C#CC(=O)Nc1cc(OC)c(OCCCN(C(=O)C#C)C(=O)Cc2ccccc2C(F)(F)F)cc1C(=O)OC [58s, methyl 4-methoxy-2-propiolamido-5-(3-(N-(2-(2-(trifluoromethyl)phenyl)acetyl)propiolamido)propoxy)benzoate]",could augment insulin secretion,64900,> 100000,–,–,–,–,–,–
20,30,800,"C#CC(=O)Nc1cc(OC)c(OCCCN(C(=O)C#C)C(=O)Cc2cccc(C(F)(F)F)c2)cc1C(=O)OC [58t, methyl 4-methoxy-2-propiolamido-5-(3-(N-(2-(3-(trifluoromethyl)phenyl)acetyl)propiolamido)propoxy)benzoate]",could augment insulin secretion,> 100000,64900,>3333,–,–,–,–,–
–,–,–,"N[C@@H](CC(=O)N1CCn2c(nnc2C(F)(F)F)C1)Cc1cc(F)c(F)cc1F [sitagliptin, reference compound]",–,–,–,–,significantly reduced,significantly reduced,–,–,–
1550,1550,210000,"CC#CC#CC#CC#CCCC(CO)O[C@@H]1O[C@H](CO)[C@@H](O)[C@H](O)[C@H]1O (stereo partly shown) [CPD P1, cytopiloyne, reference compound]",could augment insulin secretion,> 100000,> 100000,>64.5,–,–,–,–,–
60,60,4000,"C#CC(=O)Nc1cc(OC)c(OC)cc1C(=O)O [CPD 8, 4,5-dimethoxy-2-propiolamidobenzoic acid]",could augment insulin secretion,> 100000,> 100000,>1666.7,significantly decreased,significantly decreased,can reverse type 2 diabetes,–,–
5,5,300,"C#CC(=O)Nc1cc(OC)c(OCCCN(C(=O)C#C)C(=O)c2cnco2)cc1C(=O)OC [58v, methyl 4-methoxy-2-propiolamido-5-(3-(N-propioloyloxazole-5-carboxamido)propoxy)benzoate]",could augment insulin secretion,> 100000,> 100000,>20000,–,–,–,–,–
250,–,–,"COc1ccc(N2C(=O)/C(=C\c3ccc([N+](=O)[O-])s3)SC2=S)cc1 [CCF642, reference compound]",could augment insulin secretion,–,–,95.6,–,–,–,23900,23900
